# According to ChEMBL document CHEMBL4270597, “Donepezil-butylated hydroxytoluene (BHT) hybrids as Anti-Alzheimer's disease agents with cholinergic, antioxidant, and neuroprotective properties” (Eur J Med Chem, 2018):
# Active and inactive are the calls of the source. The rule behind the calls is not given here.
# Tests used:
# [1] = Half life in Sprague-Dawley rat liver microsomes in presence of NADPH by UPLC/MS analysis
# [2] = target: T1, Amine oxidase [flavin-containing] A (Homo sapiens, UniProt P21397); assay: Inhibition of human MAO-A using p-tyramine as substrate incubated for 15 mins followed by substrate addition measured for 20 mins by fluorescence assay
# T1 sequence (P21397 whole entry): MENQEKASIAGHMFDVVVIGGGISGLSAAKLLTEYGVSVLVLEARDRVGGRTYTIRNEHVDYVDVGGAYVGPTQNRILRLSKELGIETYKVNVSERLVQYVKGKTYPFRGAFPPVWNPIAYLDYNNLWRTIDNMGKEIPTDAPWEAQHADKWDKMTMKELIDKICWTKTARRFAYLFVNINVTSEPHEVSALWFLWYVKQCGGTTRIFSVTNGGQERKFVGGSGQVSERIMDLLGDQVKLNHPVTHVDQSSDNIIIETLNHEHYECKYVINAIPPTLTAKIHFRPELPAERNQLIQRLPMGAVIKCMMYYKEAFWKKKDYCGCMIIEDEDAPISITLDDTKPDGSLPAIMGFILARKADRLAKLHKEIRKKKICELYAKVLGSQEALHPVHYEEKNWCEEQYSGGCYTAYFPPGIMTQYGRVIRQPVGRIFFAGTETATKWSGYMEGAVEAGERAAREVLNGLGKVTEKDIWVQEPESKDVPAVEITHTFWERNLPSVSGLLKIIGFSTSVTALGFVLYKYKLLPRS
# Cholinesterase [3] = target: Cholinesterase (Equus caballus, UniProt P81908); assay: Inhibition of equine serum BuChE using butyrylthiocholine iodide as substrate incubated for 5 mins followed by substrate addition measured after 180 secs by Ellman's method
# Chain of Cholinesterase (Equus caballus, UniProt P81908) (P81908 whole entry): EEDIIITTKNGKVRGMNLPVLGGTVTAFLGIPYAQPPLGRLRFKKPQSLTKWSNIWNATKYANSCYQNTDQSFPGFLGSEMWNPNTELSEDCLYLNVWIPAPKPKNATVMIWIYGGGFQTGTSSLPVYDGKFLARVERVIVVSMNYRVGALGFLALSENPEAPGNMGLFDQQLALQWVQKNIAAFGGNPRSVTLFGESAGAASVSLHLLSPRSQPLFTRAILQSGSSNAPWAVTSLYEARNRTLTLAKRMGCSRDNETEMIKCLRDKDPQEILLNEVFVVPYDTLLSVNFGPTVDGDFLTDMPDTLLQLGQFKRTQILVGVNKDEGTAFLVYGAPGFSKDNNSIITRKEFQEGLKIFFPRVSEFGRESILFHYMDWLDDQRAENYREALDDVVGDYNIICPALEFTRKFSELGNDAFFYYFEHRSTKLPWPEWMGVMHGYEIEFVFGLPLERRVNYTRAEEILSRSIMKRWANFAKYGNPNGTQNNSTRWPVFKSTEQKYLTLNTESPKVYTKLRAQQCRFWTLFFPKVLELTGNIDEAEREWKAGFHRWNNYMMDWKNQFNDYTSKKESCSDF
# Homo sapiens = species: Homo sapiens; assay: Selectivity index, ratio of IC50 for human serum BuChE to IC50 for human erythrocyte AChE
# [4] = target: T2, Amine oxidase [flavin-containing] B (Homo sapiens, UniProt P27338); assay: Inhibition of human MAO-B at 100 uM using p-tyramine as substrate incubated for 15 mins followed by substrate addition measured for 20 mins by fluorescence assay relative to control
# T2 sequence (P27338 whole entry): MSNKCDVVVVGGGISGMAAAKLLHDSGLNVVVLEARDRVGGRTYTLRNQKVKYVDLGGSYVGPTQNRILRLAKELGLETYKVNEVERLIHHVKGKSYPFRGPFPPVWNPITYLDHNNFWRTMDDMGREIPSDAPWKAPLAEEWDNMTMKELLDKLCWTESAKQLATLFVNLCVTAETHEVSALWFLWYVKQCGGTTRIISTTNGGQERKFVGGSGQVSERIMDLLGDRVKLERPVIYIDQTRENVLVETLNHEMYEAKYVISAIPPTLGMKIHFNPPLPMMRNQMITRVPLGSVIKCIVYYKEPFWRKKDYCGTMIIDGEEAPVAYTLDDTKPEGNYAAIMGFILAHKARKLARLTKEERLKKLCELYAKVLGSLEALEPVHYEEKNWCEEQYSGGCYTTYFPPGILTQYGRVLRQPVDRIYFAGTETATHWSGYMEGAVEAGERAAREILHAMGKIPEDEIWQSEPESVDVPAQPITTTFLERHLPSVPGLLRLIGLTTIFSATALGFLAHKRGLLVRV
# [5] = Antioxidant activity assessed as trolox equivalent of AAPH-induced radical scavenging activity preincubated for 15 mins followed by AAPH addition measured every minute for 120 mins by ORAC-FL based fluorescein assay; type: functional
# Acetylcholinesterase [6] = target: T3, Acetylcholinesterase (Homo sapiens, UniProt P22303); assay: Inhibition of human erythrocyte AChE using acetylthiocholine chloride as substrate incubated for 5 mins followed by substrate addition measured after 180 secs by Ellman's method
# T3 sequence (P22303 whole entry): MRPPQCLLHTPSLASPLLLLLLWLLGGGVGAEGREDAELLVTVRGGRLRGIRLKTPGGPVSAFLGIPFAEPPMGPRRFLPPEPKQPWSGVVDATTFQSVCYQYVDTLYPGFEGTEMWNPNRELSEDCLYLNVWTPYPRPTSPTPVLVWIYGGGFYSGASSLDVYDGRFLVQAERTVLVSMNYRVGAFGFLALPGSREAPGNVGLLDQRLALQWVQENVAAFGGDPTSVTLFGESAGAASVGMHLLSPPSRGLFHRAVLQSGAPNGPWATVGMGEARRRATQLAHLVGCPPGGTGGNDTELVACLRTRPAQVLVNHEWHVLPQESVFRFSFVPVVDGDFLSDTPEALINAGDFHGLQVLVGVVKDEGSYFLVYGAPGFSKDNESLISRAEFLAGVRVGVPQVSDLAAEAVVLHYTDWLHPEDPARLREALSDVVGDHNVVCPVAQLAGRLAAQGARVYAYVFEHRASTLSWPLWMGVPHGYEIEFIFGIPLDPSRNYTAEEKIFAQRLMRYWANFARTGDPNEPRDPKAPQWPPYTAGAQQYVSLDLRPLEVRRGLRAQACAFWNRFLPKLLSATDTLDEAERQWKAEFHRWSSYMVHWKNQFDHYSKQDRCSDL
# Cholinesterase [7] = target: T4, Cholinesterase (Homo sapiens, UniProt P06276); assay: Inhibition of human serum BuChE using butyrylthiocholine iodide as substrate incubated for 5 mins followed by substrate addition measured after 180 secs by Ellman's method; details: read-out: IC50
# T4 sequence (P06276 whole entry): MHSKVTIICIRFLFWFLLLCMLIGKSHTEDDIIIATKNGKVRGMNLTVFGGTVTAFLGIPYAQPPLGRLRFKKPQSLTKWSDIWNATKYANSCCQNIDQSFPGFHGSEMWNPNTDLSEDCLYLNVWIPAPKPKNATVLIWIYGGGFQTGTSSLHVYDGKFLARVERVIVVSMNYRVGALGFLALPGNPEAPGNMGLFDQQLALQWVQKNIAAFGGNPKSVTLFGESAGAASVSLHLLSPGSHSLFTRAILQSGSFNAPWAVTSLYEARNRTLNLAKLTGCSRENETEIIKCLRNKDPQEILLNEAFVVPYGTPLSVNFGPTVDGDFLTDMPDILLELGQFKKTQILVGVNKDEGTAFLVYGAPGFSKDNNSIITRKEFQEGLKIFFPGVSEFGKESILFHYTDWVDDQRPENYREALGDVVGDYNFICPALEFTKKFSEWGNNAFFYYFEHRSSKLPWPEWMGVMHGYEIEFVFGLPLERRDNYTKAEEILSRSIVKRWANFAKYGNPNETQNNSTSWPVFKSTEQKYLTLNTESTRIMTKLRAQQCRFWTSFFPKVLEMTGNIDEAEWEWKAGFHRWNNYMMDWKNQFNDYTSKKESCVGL
# Acetylcholinesterase [8] = target: Acetylcholinesterase (Electrophorus electricus, UniProt O42275); assay: Inhibition of electric eel AChE using acetylthiocholine chloride as substrate incubated for 5 mins followed by substrate addition measured after 180 secs by Ellman's method
# Chain of Acetylcholinesterase (Electrophorus electricus, UniProt O42275) (O42275 whole entry): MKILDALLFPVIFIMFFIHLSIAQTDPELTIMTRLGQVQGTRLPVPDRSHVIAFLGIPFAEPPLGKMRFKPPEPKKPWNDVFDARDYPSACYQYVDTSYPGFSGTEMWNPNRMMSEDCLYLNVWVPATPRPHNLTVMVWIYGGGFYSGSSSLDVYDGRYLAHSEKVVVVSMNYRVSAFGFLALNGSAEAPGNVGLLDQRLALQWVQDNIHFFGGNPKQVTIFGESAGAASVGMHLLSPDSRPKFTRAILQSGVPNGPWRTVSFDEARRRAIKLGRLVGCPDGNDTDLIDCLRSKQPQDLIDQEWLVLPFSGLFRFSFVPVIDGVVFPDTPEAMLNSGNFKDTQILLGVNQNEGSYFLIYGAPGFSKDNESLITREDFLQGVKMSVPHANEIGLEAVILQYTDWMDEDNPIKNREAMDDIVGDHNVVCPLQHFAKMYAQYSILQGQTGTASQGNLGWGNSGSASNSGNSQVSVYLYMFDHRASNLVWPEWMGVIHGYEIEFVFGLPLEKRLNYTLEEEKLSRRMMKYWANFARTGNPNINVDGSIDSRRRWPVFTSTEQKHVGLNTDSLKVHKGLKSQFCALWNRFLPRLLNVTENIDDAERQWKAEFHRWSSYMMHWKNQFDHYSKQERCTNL
# [9] = Antioxidant activity assessed as ABTS radical cation scavenging activity by measuring trolox equivalent antioxidant capacity measured at 6 mins; type: functional
# [10] = Antioxidant activity assessed as DPPH radical scavenging activity at 100 uM measured after 30 mins incubation in dark by UV-Visible spectrophotometric analysis relative to control; type: functional
# PC-12 [11] = assay: Cytotoxicity against rat PC12 cells assessed as decrease in cell viability at 20 uM after 24 hrs by MTT assay; type: cell-based; details: pc-12, 24 h
# [12] = Antioxidant activity assessed as DPPH radical scavenging activity measured after 30 mins incubation in dark by UV-Visible spectrophotometric analysis; type: functional
# PC-12 [13] = assay: Cytotoxicity against rat PC12 cells assessed as decrease in cell viability at 30 uM after 24 hrs by MTT assay; type: cell-based; details: pc-12, 24 h
# [14] = target: Amyloid-beta precursor protein (Homo sapiens) (UniProt P05067); assay: Inhibition of AChE-induced amyloid beta 40 (unknown origin) aggregation at 100 uM by thioflavin-T fluorescence assay relative to control
# Chain of Amyloid-beta precursor protein (Homo sapiens) (P05067 whole entry): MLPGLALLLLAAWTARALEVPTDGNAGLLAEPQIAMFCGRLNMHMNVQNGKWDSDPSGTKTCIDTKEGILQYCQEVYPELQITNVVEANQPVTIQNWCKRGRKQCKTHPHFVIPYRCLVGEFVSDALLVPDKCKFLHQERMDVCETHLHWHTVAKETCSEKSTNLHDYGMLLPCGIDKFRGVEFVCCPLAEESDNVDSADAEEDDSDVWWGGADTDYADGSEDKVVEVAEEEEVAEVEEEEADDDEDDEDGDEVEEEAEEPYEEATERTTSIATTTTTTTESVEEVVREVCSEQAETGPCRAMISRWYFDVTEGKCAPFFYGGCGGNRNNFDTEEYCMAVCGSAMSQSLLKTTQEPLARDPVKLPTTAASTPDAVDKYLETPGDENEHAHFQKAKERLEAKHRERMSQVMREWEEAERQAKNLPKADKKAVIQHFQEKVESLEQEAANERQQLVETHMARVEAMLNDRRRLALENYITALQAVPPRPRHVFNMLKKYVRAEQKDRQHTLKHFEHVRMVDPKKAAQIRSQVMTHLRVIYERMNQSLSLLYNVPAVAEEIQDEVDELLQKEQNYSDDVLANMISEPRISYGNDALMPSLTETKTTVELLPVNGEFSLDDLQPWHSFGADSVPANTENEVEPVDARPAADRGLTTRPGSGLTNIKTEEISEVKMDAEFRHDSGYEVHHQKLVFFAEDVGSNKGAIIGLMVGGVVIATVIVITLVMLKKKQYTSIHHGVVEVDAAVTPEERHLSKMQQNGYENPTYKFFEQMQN
# [15] = target: T2, Amine oxidase [flavin-containing] B; assay: Inhibition of human MAO-B using p-tyramine as substrate incubated for 15 mins followed by substrate addition measured for 20 mins by fluorescence assay
# Acetylcholinesterase [16] = target: T3, Acetylcholinesterase; assay: Mixed-type inhibition of human AChE using acetylthiocholine chloride as substrate incubated for 5 mins followed by substrate addition by Lineweaver-Burk plot analysis
# [17] = target: Cholinesterase (Equus caballus) (UniProt P81908); assay: Inhibition of equine serum BuChE at 100 uM using butyrylthiocholine iodide as substrate incubated for 5 mins followed by substrate addition measured after 180 secs by Ellman's method relative to control
# Chain of Cholinesterase (Equus caballus) (P81908 whole entry): as the sequence (P81908 whole entry) above
# PC-12 [18] = assay: Neuroprotective activity against H2O2-induced oxidative stress in rat PC12 cells assessed as increase in cell viability pretreated for 4 hrs followed by H2O2 challenge measured after 24 hrs by MTT assay; type: functional, cell-based
# [19] = target: Amyloid-beta precursor protein (Homo sapiens) (UniProt P05067); assay: Inhibition of self-induced amyloid beta 42 (unknown origin) aggregation at 20 uM incubated for 46 to 48 hrs by thioflavin-T fluorescence assay relative to control
# Acetylcholinesterase [20] = target: T3, Acetylcholinesterase; assay: Inhibition of human erythrocyte AChE at 100 uM using acetylthiocholine chloride as substrate incubated for 5 mins followed by substrate addition measured after 180 secs by Ellman's method relative to control
# [21] = target: Acetylcholinesterase (Electrophorus electricus) (UniProt O42275); assay: Inhibition of electric eel AChE at 100 uM using acetylthiocholine chloride as substrate incubated for 5 mins followed by substrate addition measured after 180 secs by Ellman's method relative to control
# Chain of Acetylcholinesterase (Electrophorus electricus) (O42275 24-633 limits assumed): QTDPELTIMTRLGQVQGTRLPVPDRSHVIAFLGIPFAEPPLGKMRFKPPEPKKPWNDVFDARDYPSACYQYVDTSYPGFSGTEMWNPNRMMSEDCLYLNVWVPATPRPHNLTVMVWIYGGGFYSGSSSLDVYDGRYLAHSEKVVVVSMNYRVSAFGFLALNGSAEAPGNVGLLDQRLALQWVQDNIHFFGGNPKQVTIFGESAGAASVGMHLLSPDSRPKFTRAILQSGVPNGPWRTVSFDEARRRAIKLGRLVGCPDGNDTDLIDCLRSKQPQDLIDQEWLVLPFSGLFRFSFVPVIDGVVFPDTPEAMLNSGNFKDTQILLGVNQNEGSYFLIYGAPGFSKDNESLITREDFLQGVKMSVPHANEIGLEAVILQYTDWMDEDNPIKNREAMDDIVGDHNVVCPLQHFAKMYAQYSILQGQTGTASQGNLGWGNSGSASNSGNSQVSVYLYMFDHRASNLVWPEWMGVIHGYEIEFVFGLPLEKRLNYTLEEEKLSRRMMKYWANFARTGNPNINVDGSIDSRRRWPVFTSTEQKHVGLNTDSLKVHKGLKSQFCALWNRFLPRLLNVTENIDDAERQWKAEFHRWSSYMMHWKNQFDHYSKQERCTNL
# Cholinesterase [22] = target: T4, Cholinesterase; assay: Inhibition of human serum BuChE at 100 uM using butyrylthiocholine iodide as substrate incubated for 5 mins followed by substrate addition measured after 180 secs by Ellman's method relative to control
# [23] = target: T1, Amine oxidase [flavin-containing] A; assay: Inhibition of human MAO-A at 100 uM using p-tyramine as substrate incubated for 15 mins followed by substrate addition measured for 20 mins by fluorescence assay relative to control
# Mus musculus = assay: Reversal of scopolamine-induced memory impairment in ICR mouse assessed as increase in step-through latency time at 5 mg/kg, po administered for 10 consecutive days and 60 mins prior to training trial followed by scopolamine challenge at 30 mins post dose measured 24 hrs after training trial by passive avoidance test; type: functional, organism-based
# BV-2 = assay: Antineuroinflammatory activity in mouse BV2 cells assessed as inhibition of LPS-induced NO production at 10 to 30 uM after 24 hrs by Griess assay; type: functional, cell-based
SMILES,IC50 [2] [µM],IC50 (Cholinesterase [3]) [µM],Ratio IC50 (Homo sapiens),Activity (mmolequiv/mmol) [5],IC50 (Acetylcholinesterase [6]) [µM],IC50 (Cholinesterase [7]) [µM],IC50 (Acetylcholinesterase [8]) [µM],Activity (mmolequiv/mmol) [9],Activity [10] [%],Activity (PC-12 [11]),IC50 [12] [µM],Activity (PC-12 [13]),IC50 [15] [µM],inhibition [17] [%],inhibition (Acetylcholinesterase [20]) [%],inhibition (Cholinesterase [22]) [%],inhibition at 100 µM [23] [%],also measured
C[C@]12CC[C@H]3[C@@H](CCC4=CC(=O)CC[C@@]43C)[C@@H]1CC[C@@H]2O [TESTOSTERONE],,,,,,,,,,,,,,,,,,half-life ([1]; liver microsomes): < 0.0833 h
CC(C)(C)c1cc(C(=O)CNCC2CCN(Cc3ccccc3)CC2)cc(C(C)(C)C)c1O,41.5,5.38,4,0.36,2.44,9.61,6.43,0.28,24.2,,,,,,,,,inhibition at 100 µM [4]: 42%
O=C(/C=C/c1ccccc1)NCCC1CCN(Cc2ccccc2)CC1,,,3.7,0.72,0.45,1.67,0.55,0.31,,Non-Toxic,> 200,Toxic,,,,,,
CC(C)(C)c1cc(/C=C/C(=O)NCCC2CCN(Cc3ccccc3)CC2)cc(C(C)(C)C)c1O,62.3,,38,1.52,2.23,84.8,0.53,0.91,,Non-Toxic,81.7,Toxic,8.5,48,,,,inhibition [14]: 38.4%; Ki (Acetylcholinesterase [16]): 3.2 µM; Activity (PC-12 [18]): Dose-dependent effect; inhibition [19]: 43.5 to 56.7%
CC(C)(C)c1cc(C(=O)NCC2CCN(Cc3ccccc3)CC2)cc(C(C)(C)C)c1O,,,,1.47,,,,0.65,48.2,,,,,8.61,15.7,23.1,15.8,inhibition [21]: 38.1%; inhibition at 100 µM [4]: 16.1%
CC(C)(C)c1cc(C(=O)NC2CCN(Cc3ccccc3)CC2)cc(C(C)(C)C)c1O,,,,1.53,,,55.6,0.74,47.4,,,,85.1,34.6,20.1,19.6,49.2,
CC(C)(C)c1cc(C(=O)CNCCC2CCN(Cc3ccccc3)CC2)cc(C(C)(C)C)c1O,95.2,48.5,14,0.31,1.38,19.6,2.44,0.27,26.7,,,,92.1,,,,,
CC(C)(C)c1cc(CCC(=O)NCC2CCN(Cc3ccccc3)CC2)cc(C(C)(C)C)c1O,,,,0.97,,,,0.63,,,63.4,,89.1,14.6,12.6,14,38.4,inhibition [21]: 27.4%
O=C(/C=C/c1ccc(O)cc1)NCCC1CCN(Cc2ccccc2)CC1,,1.26,0.49,1.81,2.51,1.22,0.81,0.55,,Non-Toxic,72.1,Toxic,,,,,,
COc1cc2c(cc1OC)C(=O)C(CC1CCN(Cc3ccccc3)CC1)C2 (stereo unspecified) [DONEPEZIL],,,,,,,,,,,,,,,,,,Activity (Mus musculus): Active; inhibition (BV-2): inactive; half-life ([1]; microsomes): 1.21 h
